# System: acute hypobaric hypoxia-induced lung injury
# Assay: Acute hypobaric hypoxia-induced lung injury in Macaca fascicularis (HE pathology)
# Assay type: in vivo
# Conditions: 7500 meters for 48 hours
# Procedure: Twenty-four healthy male Macaca fascicularis, 6 to 6.5 years-old, weighted 6.5-7.5 kg, were purchased from Kangda Laboratory Animal Center, Gaoyao City, Guangdong, China, in which 17 male Macaca fascicularis were divided into 3 groups, as shown in the following table:
# Three Macaca fascicularis housed in the animal room were randomly selected each time. For each animal, 10 ml of blood was collected, and 10 ml of glucose normal saline was injected intravenously, and marked. The animals were then housed in a low-pressure chamber for 1 day to acclimate to the experimental environment. In the acute hypobaric hypoxia group, the altitude was simulated to 3000 meters at a speed of 3 m/s; after the animals stayed in the low-pressure chamber at a simulated altitude of 3000 meters for 30 minutes, 10 ml of blood was taken from each animal and 10 ml of glucose saline was injected intravenously; the altitude was then simulated to 4500 meters at a speed of 3 m/s; after the animals stayed in the low-pressure chamber at a simulated altitude of 4500 meters for 30 minutes, 10 ml of blood was taken from each animal and 10 ml of glucose saline was injected intravenously; the altitude was simulated to 6000 meters at a speed of 3 m/s; after the animals stayed in the low-pressure chamber at a simulated altitude of 6000 meters for 30 minutes, 10 ml of blood was taken from each animal and 10 ml of glucose saline was injected intravenously; the altitude was simulated to 7500 meters at a speed of 2 m/s; after the animals stayed at a simulated altitude of 7500 meters in the low-pressure chamber for 24 hours, the altitude was lowered to 6000 meters at a speed of 3 m/s, and 10 ml of blood was taken from each animal and 10 ml of glucose saline was injected intravenously; the altitude was simulated to 7500 meters at a speed of 2 m/s; after staying at 7500 meters for 48 hours, the altitude was lowered to 6000 meters at a speed of 3 m/s, the animals were anesthetized (0.06 ml/kg ketamine hydrochloride injection, 0.02 ml/kg xylazine hydrochloride injection), and sacrificed by carotid bloodletting, and dissected and subject to sampling, and the samples were then fixed. The Macaca fascicularis in the normobaric normoxia control group were anesthetized (0.06 ml/kg ketamine hydrochloride injection, 0.02 ml/kg xylazine hydrochloride injection) in the plain (an altitude of 352 meters), then sacrificed by carotid bloodletting, and dissected and subject to sampling, and the samples were then fixed. […]
structure (smiles),measurement,setting,value
"C[C@@]12CCCC1C1C[C@@H](O)[C@]3(O)C[C@@H](O)CC[C@]3(C)C1CC2 (stereo partly drawn) [YC-6, 5α-androst-3β,5,6β-triol]",alveolar septal thickening caused by acute hypobaric hypoxia,100 mg/kg/two days (i.v. solution and i.m. sustained-release formulation),significantly reduced the alveolar septal thickening injury
same,"fibrous hyperplasia of alveolar septa, protein hyaline membrane formation and erythrocyte leakage into the alveolar space",100 mg/kg/two days,no such obvious changes were observed
same,inflammatory infiltration and shedding of damaged lung epithelial cells,100 mg/kg/two days,no obvious inflammatory infiltration and shedding of damaged lung epithelial cells were observed
same,pulmonary vascular congestion and swelling,100 mg/kg/two days,significantly inhibited pulmonary vascular congestion and swelling

# Reference: US12594282B2, “Use of small molecule compounds in the treatment of diseases mediated by lung epithelial cell injury and/or vascular endothelial cell injury” (Guangzhou Cellprotek Pharmaceutical Co., Ltd., priority 2020, dated 2026)
